Test results: patent publication US20230416329A1, “A PEPTIDE WITH DISULFIDE BONDS AND INHIBITORY ACTIVITY AGAINST SERINE PROTEASES, DERIVED HYBRID PEPTIDES THEREOF, AND USES THEREOF” (INSTITUTE OF MATERIA MEDICA , CHINESE ACADEMY OF MEDICAL …, priority 2020, published 2023)
Bridge positions count the residues as written; N and C are the ends. Peptide text beside a SMILES is read from it.

Biological target: α-chymotrypsin (Bos taurus, UniProt P00766)
Assay: Chymotrypsin inhibitory activity of peptides (AAPFpNA hydrolysis; IC50, Ki, residual activity)
Format: biochemical
Details: for Ki: Ki=IC50/(1+S/Km), Km 0.38 mM; for IC50: chymotrypsin 30 nM, AAPFpNA 0.5 mM
Experimental: The inhibition constants of various synthetic active peptide inhibitors (molecular scaffolds) against seine proteases were measured. The substrates N-succinyl-Ala-Ala-Pro-Phe-p-nitroaniline (AAPFpNA), Nα—Benzoyl-L-arginine-4-nitroaniline hydrochloride (BApNA) and N-succinyl-[…] (AAApNA) are used in competitive binding reaction to determine the inhibitory activities against α-chymotrypsin, bovine trypsin, and porcine pancreatic elastase, respectively. Experiments for α-chymotrypsin and bovine trypsin inhibition were measured in 20 mM CaCl2, 50 mM Tris-HCl buffer (pH 7.8), and that for porcine elastase inhibition was measured in 50 mM Tris-HCl buffer (pH 8.0). The concentration of the peptide was measured using optical density (OD) at 280 nm. The Michaelis constant (Km) of the enzyme hydrolysis substrate is calculated from the initial rate of substrate hydrolysis at 405 nm. The absorbance value of the substrate was measured at 405 nm after complete hydrolysis. All data were processed using nonlinear regression.
• (1) Added a total 190 μL of reaction buffer (20 mM CaCl2, 50 mM Tris-HCl (pH 7.8)) into the 96 well plate, followed by preheating at 37° C. for 15 min. Then added 2 μL of different concentrations of substrates (p-Nitroanilide, pNA, 0.5% in DMSO), and mixed by centrifugation at 500 rpm for 1 min. Finally, the plate was incubated at 37° C. for 20 min, and the absorbance value at 405 nm was measured. In the 200 μL of reaction system, the final concentrations of pNA were 0, 0.025, 0.05, 0.075, 0.1, 0.125, 0.15, 0.25, and 0.3 mM, respectively. Make three repetitions for each concentration and plot the OD405 m value with pNA concentration to obtain the standard curve. • (2) Added a total 190 μL of reaction buffer (20 mM CaCl2, 50 mM Tris-HCl (pH 7.8)) and 8 μL of 0.75 μM chymotrypsin into the 96 well plate, followed by preheating at 37° C. for 5 min. Then added 2 μL of different concentrations of substrates (AAPFpNA, dissolved in DMSO), and mixed by centrifugation at 500 rpm for 1 min. Finally, the plate was incubated at 37° C. for 20 min, and the absorbance value at 405 nm was measured. In the 200 μL of reaction system, the final concentrations of AAPFpNA were 0, 0.125, 0.25, 0.285, 0.33, 0.4, and 0.5 mM, respectively. Make three repetitions for each concentration and plot the OD405 nm value with time to obtain the corresponding curve. Divide the slope of the curve by the slope of the standard curve and the enzyme concentration to obtain the initial velocity V0 (mM/(min*mM protein). Plot the initial velocity V0 with the concentration of substrate AAPFpNA using Prism software, and the Michaelis constant Km value of chymotrypsin hydrolyzing AAPFpNA was obtained.
• (1) Added a total 190 μL of reaction buffer (20 mM CaCl2, 50 mM Tris-HCl (pH 7.8)), different concentrations of anti-chymorypsin peptides (CHs) into the pre-cold 96 well plate, followed by preheating at 37° C. for 5 min and centrifugated at 500 rpm for 1 min and allowed to stand for 4 minutes. Then added 8 μL of 750 nM chymotrypsin and incubated at 37° C. for 10 min, and centrifugated at 500 rpm for 1 min and allowed to stand for 9 minutes. Finally, added 2 μL of 50 mM AAPFpNA, and mixed by centrifugation at 500 rpm for 1 min. The plate was incubated at 37° C. for 90 min, and the absorbance value at 405 nm was measured. Three repetitions were made, and only reaction buffer and substrate were added in the blank control as the minimum absorption value (Min OD405 nm); Only reaction buffer, enzyme and substrate were added in the negative control as the maximum absorption value (Max OD405). • (2) In the 200 μL of reaction system, the final concentrations of chymotrypsin and AAPFpNA were 30 nM and 0.5 mM, respectively. • (3) Data statistics
Residual activity of enzyme (%)=(1−(Max OD405 nm−Sample OD405 nm)/(Max OD405 nm−Min OD405 nm))*100 […]

## CC[C@H](C)[C@@H]1NC(=O)[C@H](CO)NC(=O)[C@H](Cc2ccccc2)NC(=O)[C@H]([C@@H](C)O)NC(=O)[C@@H](NC(=O)[C@@H](N)CC(C)C)CSSC[C@@H](C(=O)N[C@@H](Cc2ccc(O)cc2)C(=O)NCC(=O)O)NC(=O)[C@H](CCC(N)=O)NC(=O)[C@@H]2CCCN2C(=O)[C@@H]2CCCN2C1=O [CH1] (H-LCTFSIPPQCYG-OH; disulfide 2-10; N-terminus and C-terminus assumed)
  Ki: 0.46 µM
  IC50: 1.07 µM
Peptide 0.001 μM
  Residual activity of chymotrypsin: 103.5 ± 1.6%
Peptide 0.01 μM
  Residual activity of chymotrypsin: 104.8 ± 7.2%
Peptide 0.1 μM
  Residual activity of chymotrypsin: 93.6 ± 5.5%
Peptide 1 μM
  Residual activity of chymotrypsin: 55.0 ± 3.3%
Peptide 3 μM
  Residual activity of chymotrypsin: 26.4 ± 1.1%
Peptide 10 μM
  Residual activity of chymotrypsin: 10.6 ± 0.2%
Peptide 100 μM
  Residual activity of chymotrypsin: 1.2 ± 0.1%
Peptide 300 μM
  Residual activity of chymotrypsin: 0.3 ± 0.1%
Peptide 1000 μM
  Residual activity of chymotrypsin: 0.5 ± 0.1%

## CC[C@H](C)[C@@H]1NC(=O)[C@H](CO)NC(=O)[C@H](Cc2ccccc2)NC(=O)[C@H](C)NC(=O)[C@H](CC(C)C)NC(=O)[C@@H](N)CSSC[C@@H](C(=O)N[C@@H](Cc2ccc(O)cc2)C(=O)NCC(=O)O)NC(=O)[C@H](CCC(N)=O)NC(=O)[C@@H]2CCCN2C(=O)[C@@H]2CCCN2C1=O [CH2] (H-CLAFSIPPQCYG-OH; disulfide 1-10; N-terminus and C-terminus assumed)
  IC50: > 50 µM

## CC[C@H](C)[C@@H]1NC(=O)[C@H](CO)NC(=O)[C@H](Cc2ccccc2)NC(=O)[C@H](C)NC(=O)[C@H](CC(C)C)NC(=O)CNC(=O)[C@@H](N)CSSC[C@@H](C(=O)N[C@@H](Cc2ccc(O)cc2)C(=O)NCC(=O)O)NC(=O)[C@H](CCC(N)=O)NC(=O)[C@@H]2CCCN2C(=O)[C@@H]2CCCN2C1=O [CH3] (H-CGLAFSIPPQCYG-OH; disulfide 1-11; N-terminus and C-terminus assumed)
  IC50: > 50 µM

## CC[C@H](C)[C@@H]1NC(=O)[C@H](CO)NC(=O)[C@H](Cc2ccc(O)cc2)NC(=O)[C@H]([C@@H](C)O)NC(=O)[C@@H](NC(=O)[C@@H](N)CO)CSSC[C@@H](C(=O)N[C@@H](Cc2ccc(O)cc2)C(=O)NCC(=O)O)NC(=O)[C@H](CCC(N)=O)NC(=O)[C@@H]2CCCN2C(=O)[C@@H]2CCCN2C1=O [CH4] (H-SCTYSIPPQCYG-OH; disulfide 2-10; N-terminus and C-terminus assumed)
  Ki: 0.55 µM
  IC50: 1.28 µM
Peptide 0.001 μM
  Residual activity of chymotrypsin: 103.2 ± 0.9%
Peptide 0.01 μM
  Residual activity of chymotrypsin: 101.8 ± 0.8%
Peptide 0.1 μM
  Residual activity of chymotrypsin: 100.7 ± 2.0%
Peptide 0.3 μM
  Residual activity of chymotrypsin: 86.7 ± 1.4%
Peptide 0.6 μM
  Residual activity of chymotrypsin: 70.4 ± 2.8%
Peptide 2.5 μM
  Residual activity of chymotrypsin: 34.6 ± 4.3%
Peptide 7.5 μM
  Residual activity of chymotrypsin: 13.8 ± 0.6%
Peptide 10 μM
  Residual activity of chymotrypsin: 9.3 ± 1.1%
Peptide 100 μM
  Residual activity of chymotrypsin: 0.7 ± 0.1%
Peptide 1000 μM
  Residual activity of chymotrypsin: 0.2 ± 0.0%

## CC[C@H](C)[C@@H]1NC(=O)[C@H](CO)NC(=O)[C@H](Cc2ccc(O)cc2)NC(=O)[C@H]([C@@H](C)O)NC(=O)CNC(=O)[C@H](CO)NC(=O)CNC(=O)[C@@H](N)CSSC[C@@H](C(=O)N[C@@H](Cc2ccc(O)cc2)C(=O)NCC(=O)O)NC(=O)[C@H](CCC(N)=O)NC(=O)[C@@H]2CCCN2C(=O)[C@@H]2CCCN2C1=O [CH6] (H-CGSGTYSIPPQCYG-OH; disulfide 1-12; N-terminus and C-terminus assumed)
  IC50: > 50 µM

## CC[C@H](C)[C@@H]1NC(=O)[C@H](CO)NC(=O)[C@H](Cc2ccccc2)NC(=O)[C@H]([C@@H](C)O)NC(=O)CNC(=O)[C@H](Cc2ccccc2)NC(=O)CNC(=O)[C@@H](N)CSSC[C@@H](C(=O)N[C@@H](Cc2ccc(O)cc2)C(=O)NCC(=O)O)NC(=O)[C@H](CCC(N)=O)NC(=O)[C@@H]2CCCN2C(=O)[C@@H]2CCCN2C1=O [CH7] (H-CGFGTFSIPPQCYG-OH; disulfide 1-12; N-terminus and C-terminus assumed)
  inhibitory activity against chymotrypsin (in words): certain inhibitory activity against chymotrypsin
  Ki: 9.65 µM
  IC50: 22.3 µM
Peptide 0.01 μM
  Residual activity of chymotrypsin: 100.9 ± 1.3%
Peptide 0.1 μM
  Residual activity of chymotrypsin: 98.8 ± 3.9%
Peptide 1 μM
  Residual activity of chymotrypsin: 101.7 ± 6.3%
Peptide 10 μM
  Residual activity of chymotrypsin: 77.7 ± 2.0%
Peptide 25 μM
  Residual activity of chymotrypsin: 46.0 ± 1.0%
Peptide 50 μM
  Residual activity of chymotrypsin: 25.8 ± 0.9%
Peptide 100 μM
  Residual activity of chymotrypsin: 14.1 ± 0.9%
Peptide 300 μM
  Residual activity of chymotrypsin: 4.1 ± 0.1%
Peptide 1000 μM
  Residual activity of chymotrypsin: 1.2 ± 0.1%

## CC[C@H](C)[C@@H]1NC(=O)[C@H](CO)NC(=O)[C@H](Cc2ccc(O)cc2)NC(=O)[C@H]([C@@H](C)O)NC(=O)[C@H](C)NC(=O)[C@H](CO)NC(=O)[C@@H](N)CSSC[C@@H](C(=O)N[C@@H](Cc2ccc(O)cc2)C(=O)O)NC(=O)[C@H](CCC(N)=O)NC(=O)[C@@H]2CCCN2C(=O)[C@@H]2CCCN2C1=O [CH8] (H-CSATYSIPPQCY-OH; disulfide 1-11; N-terminus and C-terminus assumed)
  IC50: > 50 µM

## CC[C@H](C)[C@@H]1NC(=O)[C@H](CO)NC(=O)[C@H](Cc2ccc(O)cc2)NC(=O)[C@H]([C@@H](C)O)NC(=O)[C@H](C)NC(=O)[C@H](CO)NC(=O)CNC(=O)[C@@H](N)CSSC[C@@H](C(=O)N[C@@H](Cc2ccc(O)cc2)C(=O)O)NC(=O)[C@H](CCC(N)=O)NC(=O)[C@@H]2CCCN2C(=O)[C@@H]2CCCN2C1=O [CH9] (H-CGSATYSIPPQCY-OH; disulfide 1-12; N-terminus and C-terminus assumed)
  inhibitory activity against chymotrypsin (in words): certain inhibitory activity against chymotrypsin
  Ki: 12.3 µM
  IC50: 28.4 µM

## CC[C@H](C)[C@@H]1NC(=O)[C@H](CO)NC(=O)[C@H](Cc2ccccc2)NC(=O)[C@H]([C@@H](C)O)NC(=O)[C@H](C)NC(=O)[C@H](Cc2ccccc2)NC(=O)CNC(=O)[C@@H](N)CSSC[C@@H](C(=O)N[C@@H](Cc2ccc(O)cc2)C(=O)NCC(=O)O)NC(=O)[C@H](CCC(N)=O)NC(=O)[C@@H]2CCCN2C(=O)[C@@H]2CCCN2C1=O [CH12] (H-CGFATFSIPPQCYG-OH; disulfide 1-12)
  IC50: > 50 µM

## CC[C@H](C)[C@@H]1NC(=O)[C@H](CO)NC(=O)[C@H](Cc2ccccc2)NC(=O)[C@H]([C@@H](C)O)NC(=O)[C@H](C)NC(=O)[C@H](CO)NC(=O)CNC(=O)[C@@H](N)CSSC[C@@H](C(=O)N[C@@H](Cc2ccc(O)cc2)C(=O)NCC(=O)O)NC(=O)[C@H](CCC(N)=O)NC(=O)[C@@H]2CCCN2C(=O)[C@@H]2CCCN2C1=O [CH13] (H-CGSATFSIPPQCYG-OH; disulfide 1-12; N-terminus and C-terminus assumed)
  inhibitory activity against chymotrypsin (in words): good inhibitory activity
  Ki: 2.43 µM
  IC50: 5.62 µM

## CC[C@H](C)[C@@H]1NC(=O)[C@H](CO)NC(=O)[C@H](Cc2ccc(O)cc2)NC(=O)[C@H]([C@@H](C)O)NC(=O)[C@H](C)NC(=O)[C@H](Cc2ccccc2)NC(=O)CNC(=O)[C@@H](N)CSSC[C@@H](C(=O)N[C@@H](Cc2ccc(O)cc2)C(=O)NCC(=O)O)NC(=O)[C@H](CCC(N)=O)NC(=O)[C@@H]2CCCN2C(=O)[C@@H]2CCCN2C1=O [CH14] (H-CGFATYSIPPQCYG-OH; disulfide 1-12)
  IC50: > 50 µM
